# According to PubChem BioAssay AID330 (DTP/NCI, 2004):
# Where “and” joins values, the source holds several entries; their conditions need not be identical. Identical values can stand only once. Toxic doses and inconclusive results are not listed.
# Tested on: P388 leukemia ip, CD2F1 mice, survival T/C
# Assay: NCI In Vivo Anticancer Drug Screen. Data for tumor model P388 Leukemia (intraperitoneal) in CD2F1 (CDF1) mice
# Details: endpoint: median survival time, higher = longer survival
# Procedure, shortened: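 Mice carrying the transplanted tumor received test compound or vehicle. Survival was recorded in each group, and the value is the treated-group measurement divided by that of the vehicle-treated control group.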
# [1] = dose: 0.75 mg/kg/injection, schedule: Q01DX009 (ip), vehicle: Klucel (hydroxypropylcellulose) (HPC)
# [2] = dose: 1.5 mg/kg/injection, schedule: Q01DX009 (ip), vehicle: Klucel (hydroxypropylcellulose) (HPC)
# [3] = dose: 12.0 mg/kg/injection, schedule: Q01DX009 (ip), vehicle: Klucel (hydroxypropylcellulose) (HPC)
# [4] = dose: 25.0 mg/kg/injection, schedule: Q01DX009 (ip), vehicle: Klucel (hydroxypropylcellulose) (HPC)
# [5] = dose: 12.5 mg/kg/injection, schedule: Q01DX009 (ip), vehicle: saline with Tween-80
# [6] = dose: 25.0 mg/kg/injection, schedule: Q01DX009 (ip), vehicle: saline with Tween-80
# [7] = dose: 50.0 mg/kg/injection, schedule: Q01DX009 (ip), vehicle: saline with Tween-80
# [8] = dose: 12.5 mg/kg/injection, schedule: Q01DX009 (ip), vehicle: saline
# [9] = dose: 25.0 mg/kg/injection, schedule: Q01DX009 (ip), vehicle: saline
# [10] = dose: 60.0 mg/kg/injection, schedule: Q01DX005 (ip), vehicle: saline with Tween-80
# [11] = dose: 120.0 mg/kg/injection, schedule: Q01DX005 (ip), vehicle: saline with Tween-80
# [12] = dose: 240.0 mg/kg/injection, schedule: Q01DX005 (ip), vehicle: saline with Tween-80
# [13] = dose: 100.0 mg/kg/injection, schedule: Q01DX009 (ip), vehicle: saline with Tween-80
# [14] = dose: 200.0 mg/kg/injection, schedule: Q01DX009 (ip), vehicle: saline with Tween-80
smiles,measurement,setting,value
O=C(O)C1SCSC1C(=O)O (configuration not stated),T/C,"dose: 25.0 mg/kg/injection, schedule: Q01DX009 (ip), vehicle: other",94 % of control
same,T/C,"dose: 50.0 mg/kg/injection, schedule: Q01DX009 (ip), vehicle: other",100 % of control
same,T/C,"dose: 100.0 mg/kg/injection, schedule: Q01DX009 (ip), vehicle: other",90 % of control
same,T/C,"dose: 200.0 mg/kg/injection, schedule: Q01DX009 (ip), vehicle: other",98 % of control
COC1C(/C=[N+](\C)[O-])OC2OC(C)(C)OC21 (configuration not stated),T/C,"dose: 50.0 mg/kg/injection, schedule: Q01DX005 (ip), vehicle: saline",102 % of control
same,T/C,"dose: 100.0 mg/kg/injection, schedule: Q01DX005 (ip), vehicle: saline",100 % of control
same,T/C,"dose: 200.0 mg/kg/injection, schedule: Q01DX005 (ip), vehicle: saline",93 % of control
C[CH2][Pb]([CH2]C)([CH2]C)[O]C(=O)c1ccccc1,T/C,[1],113 % of control
same,T/C,[2],115 % of control
same,T/C,"dose: 3.0 mg/kg/injection, schedule: Q01DX009 (ip), vehicle: Klucel (hydroxypropylcellulose) (HPC)",123 % of control
same,T/C,"dose: 6.0 mg/kg/injection, schedule: Q01DX009 (ip), vehicle: Klucel (hydroxypropylcellulose) (HPC)",123 % of control
same,T/C,[3],97 % of control
CC(=O)Nc1cc(NC(C)=O)cc(N(CCCl)CCCl)c1,T/C,"dose: 3.13 mg/kg/injection, schedule: Q01DX009 (ip), vehicle: water",118 % of control
same,T/C,"dose: 12.5 mg/kg/injection, schedule: Q01DX009 (ip), vehicle: water",151 % of control
same,T/C,"dose: 16.5 mg/kg/injection, schedule: Q01DX009 (ip), vehicle: water",162 % of control
same,T/C,"dose: 25.0 mg/kg/injection, schedule: Q01DX009 (ip), vehicle: water",154 % of control and 169 % of control and 196 % of control
same,T/C,"dose: 37.5 mg/kg/injection, schedule: Q01DX009 (ip), vehicle: water",122 % of control
CC1(C)CCCC2(C)C1CCC1(C)OC3=CC(=O)C(O)=CC3=CC12 (configuration not stated),T/C,"dose: 6.25 mg/kg/injection, schedule: Q01DX009 (ip), vehicle: Klucel (hydroxypropylcellulose) (HPC)",100 % of control
same,T/C,"dose: 12.5 mg/kg/injection, schedule: Q01DX009 (ip), vehicle: Klucel (hydroxypropylcellulose) (HPC)",112 % of control
same,T/C,[4],119 % of control
COc1cc(C=C2C(=O)C=CC2=O)ccc1OCc1ccccc1,T/C,"dose: 2.5 mg/kg/injection, schedule: Q04DX002 (ip), vehicle: saline with Tween-80",102 % of control
same,T/C,"dose: 5.0 mg/kg/injection, schedule: Q04DX002 (ip), vehicle: saline with Tween-80",113 % of control
same,T/C,"dose: 10.0 mg/kg/injection, schedule: Q04DX002 (ip), vehicle: saline with Tween-80",107 % of control
same,T/C,"dose: 25.0 mg/kg/injection, schedule: Q04DX002 (ip), vehicle: saline with Tween-80",111 % of control
C[n+]1cccc2c1C(=O)C(=O)c1ncccc1-2,T/C,[5],100 % of control
same,T/C,[6],108 % of control
same,T/C,[7],109 % of control
CCCCOC(=O)N[C@H]1CCc2cc(OC)c(OC)c(OC)c2-c2ccc(SC)c(=O)cc21,T/C,"dose: 0.38 mg/kg/injection, schedule: Q01DX009 (ip), vehicle: Klucel (hydroxypropylcellulose) (HPC)",112 % of control
same,T/C,[1],122 % of control and 123 % of control
same,T/C,[2],114 % of control
same,T/C,[3],94 % of control
CCCn1cc2c3c(cccc31)[C@H]1C[C@@H](C)CN(C)[C@@H]1C2,T/C,"dose: 3.12 mg/kg/injection, schedule: Q01DX005 (ip), vehicle: saline with Tween-80",102 % of control and 107 % of control
same,T/C,"dose: 6.25 mg/kg/injection, schedule: Q01DX005 (ip), vehicle: saline with Tween-80",100 % of control and 105 % of control and 107 % of control
same,T/C,"dose: 12.5 mg/kg/injection, schedule: Q01DX005 (ip), vehicle: saline with Tween-80",102 % of control and 92 % of control and 93 % of control
same,T/C,"dose: 25.0 mg/kg/injection, schedule: Q01DX005 (ip), vehicle: saline with Tween-80",98 % of control and 101 % of control
same,T/C,"dose: 50.0 mg/kg/injection, schedule: Q01DX005 (ip), vehicle: saline with Tween-80",101 % of control
same,T/C,"dose: 100.0 mg/kg/injection, schedule: Q01DX005 (ip), vehicle: saline with Tween-80",104 % of control
same,T/C,"dose: 200.0 mg/kg/injection, schedule: Q01DX005 (ip), vehicle: saline with Tween-80",98 % of control
CC1=c2c(oc3cc(O)c(Nc4c(C)cc(O)cc4O)c(C)c23)=CC(=O)C1=Nc1c(C)cc(O)cc1O,T/C,"dose: 60.0 mg/kg/injection, schedule: Q01DX005 (ip), vehicle: Klucel (hydroxypropylcellulose) (HPC)",95 % of control
same,T/C,"dose: 120.0 mg/kg/injection, schedule: Q01DX005 (ip), vehicle: Klucel (hydroxypropylcellulose) (HPC)",89 % of control
same,T/C,"dose: 240.0 mg/kg/injection, schedule: Q01DX005 (ip), vehicle: Klucel (hydroxypropylcellulose) (HPC)",95 % of control
CCOC(=O)N1CCc2[nH]oc(=O)c2CC1,T/C,"dose: 6.25 mg/kg/injection, schedule: Q01DX009 (ip), vehicle: saline",101 % of control and 107 % of control
same,T/C,[8],110 % of control and 95 % of control
same,T/C,[9],99 % of control
C[O+]=c1cccc2sc(-c3ccccc3)ccc1-2,T/C,"dose: 50.0 mg/kg/injection, schedule: Q01DX005 (ip), vehicle: Klucel (hydroxypropylcellulose) (HPC)",99 % of control
same,T/C,"dose: 100.0 mg/kg/injection, schedule: Q01DX005 (ip), vehicle: Klucel (hydroxypropylcellulose) (HPC)",108 % of control
COc1cc(/C=C/C(=O)Sc2ccccc2)cc(OC)c1O,T/C,[10],109 % of control
same,T/C,[11],105 % of control
same,T/C,[12],100 % of control
CCc1cc(C)cc(NC(=O)OC2CCCCC2C)c1 (configuration not stated),T/C,[10],102 % of control
same,T/C,[11],112 % of control
same,T/C,[12],111 % of control
COc1cc(-c2ccc(Nc3ccccc3C(=O)O)c(OC)c2)ccc1N,T/C,"dose: 50.0 mg/kg/injection, schedule: Q04DX003 (ip), vehicle: saline with Tween-80",110 % of control
same,T/C,"dose: 100.0 mg/kg/injection, schedule: Q04DX003 (ip), vehicle: saline with Tween-80",150 % of control
same,T/C,"dose: 132.0 mg/kg/injection, schedule: Q04DX003 (ip), vehicle: saline with Tween-80",104 % of control
COC(=O)/C=C\SC(=S)C1CCCC1=N (configuration not stated),T/C,[7],98 % of control
same,T/C,[13],94 % of control
same,T/C,[14],91 % of control
NC1(c2ccccc2)CCCCC1,T/C,[8],99 % of control
same,T/C,[9],106 % of control
same,T/C,"dose: 50.0 mg/kg/injection, schedule: Q01DX009 (ip), vehicle: saline",105 % of control
CC(C)(C)OC(=O)O/N=C(\C#N)c1ccccc1,T/C,[5],90 % of control
same,T/C,[6],104 % of control
same,T/C,[7],100 % of control and 103 % of control
same,T/C,[14],100 % of control
Cc1cc2nc3c(=O)[nH]c(=O)nc-3n(CCOC(=O)CCC(=O)O)c2cc1C,T/C,"dose: 100.0 mg/kg/injection, schedule: Q04DX003 (ip), vehicle: saline sonified",104 % of control
same,T/C,"dose: 200.0 mg/kg/injection, schedule: Q04DX003 (ip), vehicle: saline sonified",114 % of control
CN(Cc1cnc2nc(N)nc(N)c2n1)c1ccc(C(=O)NC(CCC(=O)OCc2cc3c(cc2Cl)OCO3)C(=O)OCc2cc3c(cc2Cl)OCO3)cc1 (configuration not stated),T/C,"dose: 0.94 mg/kg/injection, schedule: Q01DX005 (ip), vehicle: saline with Tween-80",166 % of control
same,T/C,"dose: 1.87 mg/kg/injection, schedule: Q01DX005 (ip), vehicle: saline with Tween-80",184 % of control and 186 % of control
same,T/C,"dose: 7.5 mg/kg/injection, schedule: Q01DX005 (ip), vehicle: saline with Tween-80",99 % of control and 118 % of control
C=CCC(CC)C(=O)Cl (configuration not stated),T/C,"dose: 75.0 mg/kg/injection, schedule: Q01DX009 (ip), vehicle: saline with Tween-80",93 % of control
same,T/C,"dose: 150.0 mg/kg/injection, schedule: Q01DX009 (ip), vehicle: saline with Tween-80",92 % of control
same,T/C,"dose: 300.0 mg/kg/injection, schedule: Q01DX009 (ip), vehicle: saline with Tween-80",111 % of control
O=C(CC(c1ccccc1)C(Sc1ccccc1)(Sc1ccccc1)Sc1ccccc1)c1ccccc1 (configuration not stated),T/C,[4],100 % of control
same,T/C,"dose: 50.0 mg/kg/injection, schedule: Q01DX009 (ip), vehicle: Klucel (hydroxypropylcellulose) (HPC)",100 % of control
same,T/C,"dose: 100.0 mg/kg/injection, schedule: Q01DX009 (ip), vehicle: Klucel (hydroxypropylcellulose) (HPC)",100 % of control and 105 % of control
O=c1[nH]c(=O)n(CC(O)CO)cc1/C=C/Br (configuration not stated),T/C,"dose: 100.0 mg/kg/injection, schedule: Q01DX001 (ip), vehicle: saline with Tween-80",106 % of control
same,T/C,"dose: 200.0 mg/kg/injection, schedule: Q01DX001 (ip), vehicle: saline with Tween-80",101 % of control
same,T/C,"dose: 400.0 mg/kg/injection, schedule: Q01DX001 (ip), vehicle: saline with Tween-80",100 % of control
CC(=O)CC(=O)CCCCCCC(=O)O,T/C,[7],103 % of control
same,T/C,[13],100 % of control
same,T/C,[14],100 % of control
